Data published in patent publication US20240254119A1 (THIRD HARMONIC BIO, INC., priority 2022, published 2024).

How the values were obtained:
wtKIT = target: T1, wtKIT (Homo sapiens, UniProt P10721); test: Caliper biochemical assay, wtKIT; settings: Table 6, read-out: KIT Biochemical IC50 avg
T1 construct: 1888289AM in the reaction mixtures
Summary of the method: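 Mobility-shift read-out: after EDTA stop, fluorescent peptide substrate and product resolved electrophoretically on LabChip 3000. Reaction ran 3 h at 25° C with 400 μM ATP, Mn^2+ cofactor, 5.0 nM wtKIT, 1 μM FAM-peptide, pH 7.5 HEPES buffer; no-enzyme wells defined full inhibition.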

CSF-1R = target: T2, CSF-1R (Homo sapiens, UniProt P07333); test: Caliper biochemical assay, CSF-1R; settings: Table 6
T2 construct: purchased Invitrogen PV3249 (lot 662393N)
Summary of the method: (§1)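 Mobility-shift readout: after EDTA quench, fluorescent peptide and product are resolved electrophoretically on a LabChip and measured by fluorescence. Reactions contain enzyme, carboxyfluorescein peptide, ATP, Mn^2+ and compound, run 3 h at 25° C; 100% inhibition control lacks enzyme.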

PDGFRα = target: T3, PDGFRα (Homo sapiens, UniProt P16234); test: Caliper biochemical assay, PDGFRα; settings: Table 6
T3 construct: purchased Millipore 14-467 (lot 26321_ACTI)
Summary of the method: as §1

[1] = target: T4, BCRP (BCRP-MDCKII monolayer) (Homo sapiens, UniProt Q9UNQ0); test: MDCKII-BCRP bidirectional transport assay; assay type: in vitro ADME; settings: for MDCK-BCRP: Papp A-B: apical to basolateral
T4 construct: host or cells: MDCKII (canine kidney) cells
T4 sequence (Q9UNQ0 1-655): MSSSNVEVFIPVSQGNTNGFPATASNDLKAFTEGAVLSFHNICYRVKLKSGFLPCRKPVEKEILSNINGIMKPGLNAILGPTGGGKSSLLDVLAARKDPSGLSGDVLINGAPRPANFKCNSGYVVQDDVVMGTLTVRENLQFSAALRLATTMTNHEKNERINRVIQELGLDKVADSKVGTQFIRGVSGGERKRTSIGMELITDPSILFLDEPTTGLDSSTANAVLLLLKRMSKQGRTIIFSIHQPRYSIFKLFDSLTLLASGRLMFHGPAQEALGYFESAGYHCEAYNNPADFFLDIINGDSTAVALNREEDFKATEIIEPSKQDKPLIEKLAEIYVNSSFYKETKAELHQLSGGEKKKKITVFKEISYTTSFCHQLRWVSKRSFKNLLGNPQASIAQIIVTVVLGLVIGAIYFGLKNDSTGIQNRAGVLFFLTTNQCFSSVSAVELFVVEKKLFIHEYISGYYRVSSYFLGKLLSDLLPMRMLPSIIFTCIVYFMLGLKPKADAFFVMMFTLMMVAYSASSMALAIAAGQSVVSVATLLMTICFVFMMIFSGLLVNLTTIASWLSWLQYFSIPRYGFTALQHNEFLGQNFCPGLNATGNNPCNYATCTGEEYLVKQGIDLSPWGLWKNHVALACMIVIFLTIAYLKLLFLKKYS
Summary of the method: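 Efflux ratios were derived from Papp values, alongside recovery, with compounds quantified by LC-MS/MS. Both directions were tested in duplicate across BCRP-MDCKII monolayers used on days 12–15. Incubation ran 120 min at 37° C, 5% CO2, after a 15 min preincubation in assay buffer.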

Kinetic solubility assay = assay type: physicochemical; settings: kinetic solubility, 50 mM PB (pH 7.4), shaken 24 hours at RT
Summary of the method: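 Concentration in the filtrate was determined by UPLC-UV or HPLC-UV with a standard curve. Before that, compound (10 mM DMSO stock) in 50 mM PB at pH 7.4 was agitated 24 h at room temperature, then PTFE-filtered with centrifugation.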

T3 sequence (P16234 24-1089): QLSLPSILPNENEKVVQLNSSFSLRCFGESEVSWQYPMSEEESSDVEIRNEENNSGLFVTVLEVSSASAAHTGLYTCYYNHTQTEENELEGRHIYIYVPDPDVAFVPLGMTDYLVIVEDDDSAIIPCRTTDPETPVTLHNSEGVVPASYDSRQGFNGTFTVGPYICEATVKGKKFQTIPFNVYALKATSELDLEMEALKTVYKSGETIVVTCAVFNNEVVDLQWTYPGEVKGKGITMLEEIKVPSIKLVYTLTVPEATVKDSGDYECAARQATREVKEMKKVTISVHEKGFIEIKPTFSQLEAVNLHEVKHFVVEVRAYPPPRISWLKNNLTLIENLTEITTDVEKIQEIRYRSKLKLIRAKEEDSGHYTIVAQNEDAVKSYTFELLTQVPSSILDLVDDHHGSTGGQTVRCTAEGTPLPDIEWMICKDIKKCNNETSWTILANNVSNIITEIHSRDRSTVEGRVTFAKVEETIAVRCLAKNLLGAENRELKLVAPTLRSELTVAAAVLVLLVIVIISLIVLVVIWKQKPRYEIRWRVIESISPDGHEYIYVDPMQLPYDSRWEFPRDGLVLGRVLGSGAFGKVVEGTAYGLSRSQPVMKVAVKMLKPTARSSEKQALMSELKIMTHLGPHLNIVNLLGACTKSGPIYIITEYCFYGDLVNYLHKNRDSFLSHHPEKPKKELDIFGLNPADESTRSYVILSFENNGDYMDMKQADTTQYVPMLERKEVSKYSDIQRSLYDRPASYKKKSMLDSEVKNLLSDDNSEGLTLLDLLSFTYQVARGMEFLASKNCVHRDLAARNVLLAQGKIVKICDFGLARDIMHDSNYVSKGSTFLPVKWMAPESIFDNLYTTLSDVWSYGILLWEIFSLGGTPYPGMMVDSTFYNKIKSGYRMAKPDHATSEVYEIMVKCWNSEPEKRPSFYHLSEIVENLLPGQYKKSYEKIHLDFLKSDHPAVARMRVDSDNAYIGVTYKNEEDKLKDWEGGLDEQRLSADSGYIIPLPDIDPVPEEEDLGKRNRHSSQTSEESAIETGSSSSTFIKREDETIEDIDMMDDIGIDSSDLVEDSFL
T1 sequence (P10721 26-976): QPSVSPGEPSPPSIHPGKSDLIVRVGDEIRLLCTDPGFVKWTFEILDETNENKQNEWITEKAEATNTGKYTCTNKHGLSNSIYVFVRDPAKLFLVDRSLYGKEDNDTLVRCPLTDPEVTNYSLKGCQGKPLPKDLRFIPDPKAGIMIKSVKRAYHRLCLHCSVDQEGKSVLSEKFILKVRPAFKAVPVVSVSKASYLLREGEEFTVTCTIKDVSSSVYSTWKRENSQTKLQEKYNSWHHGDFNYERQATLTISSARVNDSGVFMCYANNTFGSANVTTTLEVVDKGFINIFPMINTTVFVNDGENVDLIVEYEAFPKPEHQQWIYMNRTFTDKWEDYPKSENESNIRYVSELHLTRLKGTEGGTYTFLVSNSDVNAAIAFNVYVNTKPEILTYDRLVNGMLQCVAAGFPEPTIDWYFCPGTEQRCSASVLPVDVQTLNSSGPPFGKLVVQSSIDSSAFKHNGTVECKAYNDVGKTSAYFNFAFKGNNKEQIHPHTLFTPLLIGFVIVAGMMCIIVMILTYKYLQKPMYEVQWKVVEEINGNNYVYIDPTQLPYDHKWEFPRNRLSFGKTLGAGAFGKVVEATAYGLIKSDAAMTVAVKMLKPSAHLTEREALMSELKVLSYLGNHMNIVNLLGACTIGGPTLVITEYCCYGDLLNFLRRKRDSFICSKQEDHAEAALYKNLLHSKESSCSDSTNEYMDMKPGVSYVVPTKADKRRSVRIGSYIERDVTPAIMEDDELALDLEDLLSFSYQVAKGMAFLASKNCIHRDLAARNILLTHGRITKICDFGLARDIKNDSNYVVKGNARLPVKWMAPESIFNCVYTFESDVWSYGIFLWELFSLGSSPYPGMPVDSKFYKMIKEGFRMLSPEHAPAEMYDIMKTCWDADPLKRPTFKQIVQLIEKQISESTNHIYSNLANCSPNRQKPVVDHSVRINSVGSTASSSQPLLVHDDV
T2 sequence (P07333 20-972): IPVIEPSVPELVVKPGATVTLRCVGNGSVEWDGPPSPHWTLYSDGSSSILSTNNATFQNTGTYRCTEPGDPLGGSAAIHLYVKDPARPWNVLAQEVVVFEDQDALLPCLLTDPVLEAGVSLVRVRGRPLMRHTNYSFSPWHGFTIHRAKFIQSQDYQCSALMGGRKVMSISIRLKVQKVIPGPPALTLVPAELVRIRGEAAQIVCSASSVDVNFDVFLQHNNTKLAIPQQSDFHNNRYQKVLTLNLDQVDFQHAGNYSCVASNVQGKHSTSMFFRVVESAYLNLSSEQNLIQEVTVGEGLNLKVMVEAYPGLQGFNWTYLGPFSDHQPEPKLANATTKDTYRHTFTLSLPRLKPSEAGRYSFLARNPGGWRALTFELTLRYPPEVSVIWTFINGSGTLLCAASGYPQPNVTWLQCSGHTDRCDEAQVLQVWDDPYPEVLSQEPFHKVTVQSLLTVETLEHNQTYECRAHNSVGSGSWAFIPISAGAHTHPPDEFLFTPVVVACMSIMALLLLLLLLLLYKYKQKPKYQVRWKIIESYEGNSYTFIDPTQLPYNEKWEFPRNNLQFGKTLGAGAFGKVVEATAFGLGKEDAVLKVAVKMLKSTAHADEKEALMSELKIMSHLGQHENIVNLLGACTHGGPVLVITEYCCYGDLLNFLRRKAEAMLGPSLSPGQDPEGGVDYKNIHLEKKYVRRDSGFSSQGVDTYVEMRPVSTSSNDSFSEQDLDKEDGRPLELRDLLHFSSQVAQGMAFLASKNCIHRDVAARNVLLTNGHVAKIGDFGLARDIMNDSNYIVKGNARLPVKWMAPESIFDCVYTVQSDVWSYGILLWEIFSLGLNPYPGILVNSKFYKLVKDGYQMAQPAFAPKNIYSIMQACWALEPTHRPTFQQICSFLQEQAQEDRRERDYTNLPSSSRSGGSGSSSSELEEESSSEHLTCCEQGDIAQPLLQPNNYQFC

Compound | IC50 (wtKIT) [nM] | IC50 (CSF-1R) [nM] | IC50 (PDGFRα) [nM] | MDCK-BCRP: Efflux Ratio [1] | MDCK-BCRP: Papp A-B [1] | Solubility (μM) (Kinetic solubility assay)
Cc1cc(C)cc(Nc2ccc3ncc(C(=O)Nc4cc(-c5noc([C@H]6C[C@@H]6F)n5)ccc4C)n3c2)c1 [Compound I-299] | ≤ 50 | ≤ 50 | 50 to 500 | 13.7 | 0.01 10^−6 cm/s | **** (a solubility less than or equal to 2 μM)
Cc1ccc(-c2noc(C3CC(F)C3)n2)cc1NC(=O)c1cnc2ccccn12 (stereo not drawn) [Compound I-381] | ≤ 50 | ≤ 50 | 50 to 500 | 1.25 | 10.1 10^−6 cm/s | **** (a solubility less than or equal to 2 μM)
COC(=O)N1CC(c2nc(-c3ccc(C)c(NC(=O)c4cnc5cc(O[C@@H](C)CO)ccn45)c3)no2)C1 (single isomer, unassigned) [Compound I-217] | ≤ 50 | ≤ 50 | 50 to 500 | 28.1 | 0.86 10^−6 cm/s | ** (a solubility greater than 10 μM and less than or equal to 50 μM)
Cc1ccc(-c2noc([C@H]3C[C@@H]3F)n2)cc1NC(=O)c1cnc2ccc(F)cn12 [Compound I-288] | ≤ 50 | 50 to 500 | 500 to 5000 | 1.01 | 7.81 10^−6 cm/s | **** (a solubility less than or equal to 2 μM)
Cc1ccc(-c2noc(C3(N)CC4(CC(F)(F)C4)C3)n2)cc1NC(=O)c1cnc2ccccn12 [Compound I-307] | ≤ 50 | ≤ 50 | 500 to 5000 | 3.77 | 7.39 10^−6 cm/s | ** (a solubility greater than 10 μM and less than or equal to 50 μM)
Cc1ccc(-c2noc([C@@H](C)O)n2)cc1NC(=O)c1cnc2ccccn12 [Compound I-270] | 50 to 500 | ≤ 50 | 5000 to 30000 | 20.8 | 1.3 10^−6 cm/s | * (a solubility greater than 50 μM)
Cc1ccc(-c2noc([C@H]3CCC(=O)N3)n2)cc1NC(=O)c1cnc2ccccn12 (racemic) [Compound I-327] | 50 to 500 | ≤ 50 | 5000 to 30000 | 73.2 | 0.28 10^−6 cm/s | * (a solubility greater than 50 μM)
Cc1ccc(-c2noc(CC(C)O)n2)cc1NC(=O)c1cnc2ccccn12 (racemic) [Compound I-363] | ≤ 50 | 50 to 500 | 500 to 5000 | 5.58 | 3.24 10^−6 cm/s | ** (a solubility greater than 10 μM and less than or equal to 50 μM)
CCCS(=O)(=O)N1CC(c2nc(-c3ccc(Cl)c(NC(=O)c4cnc5ccccn45)c3)no2)C1 [Compound I-220] | ≤ 50 | 50 to 500 | 5000 to 30000 | 1.17 | 26.4 10^−6 cm/s | **** (a solubility less than or equal to 2 μM)
COCCS(=O)(=O)N1CC(c2nc(-c3ccc(C)c(NC(=O)c4cnc5ccccn45)c3)no2)C1 [Compound I-235] | ≤ 50 | 50 to 500 | 5000 to 30000 | 6.86 | 3.11 10^−6 cm/s | *** (a solubility greater than 2 μM and less than or equal to 10 μM)
Cc1nc(-c2ccc(Cl)c(NC(=O)c3cnc4ccccn34)c2)no1 [Compound I-172] | ≤ 50 | 50 to 500 | 500 to 5000 | 0.81 | 6.02 10^−6 cm/s | **** (a solubility less than or equal to 2 μM)
COC(=O)N1CC(c2nc(-c3ccc(C)c(NC(=O)c4cnc5cc(OC[C@@H](C)O)ccn45)c3)no2)C1 [Compound I-263] | ≤ 50 | ≤ 50 | 50 to 500 | 45.4 | 0.56 10^−6 cm/s | * (a solubility greater than 50 μM)
Cc1ccc(-c2noc(CO)n2)cc1NC(=O)c1cnc2ccccn12 [Compound I-337] | ≤ 50 | 50 to 500 | 50 to 500 | 4.71 | 3.73 10^−6 cm/s | * (a solubility greater than 50 μM)
Cc1ccc(-c2noc([C@H]3C[C@@H]3F)n2)cc1NC(=O)c1cnc2ccc(C#N)cn12 [Compound I-384] | ≤ 50 | ≤ 50 | 5000 to 30000 | 12.9 | 0.59 10^−6 cm/s | **** (a solubility less than or equal to 2 μM)
COC(=O)N1CC(c2nc(-c3ccc(Cl)c(NC(=O)c4cnc5ccccn45)c3)no2)C1 [Compound I-339] | ≤ 50 | ≤ 50 | 500 to 5000 | 1.75 | 13 10^−6 cm/s | **** (a solubility less than or equal to 2 μM)
Cc1ccc(-c2noc(C3CCC3F)n2)cc1NC(=O)c1cnc2ccccn12 (racemic) [Compound I-376] | ≤ 50 | ≤ 50 | 50 to 500 | 1.02 | 6.24 10^−6 cm/s | **** (a solubility less than or equal to 2 μM)
Cc1ccc(-c2noc(CC3CC(F)(F)C3)n2)cc1NC(=O)c1cnc2ccccn12 [Compound I-124] | ≤ 50 | ≤ 50 | 50 to 500 | 1.14 | 9.07 10^−6 cm/s | **** (a solubility less than or equal to 2 μM)
O=C(Nc1cc(-c2noc([C@H]3C[C@@H]3F)n2)ccc1Cl)c1cnc2ccccn12 [Compound I-341] | ≤ 50 | ≤ 50 | 50 to 500 | 0.84 | 10.1 10^−6 cm/s | **** (a solubility less than or equal to 2 μM)
COC(=O)N1CC(c2nc(-c3ccc(C)c(NC(=O)c4cnn5ccc(Br)cc45)c3)no2)C1 [Compound I-280] | ≤ 50 | ≤ 50 | 5000 to 30000 | 2.55 | 5.07 10^−6 cm/s | **** (a solubility less than or equal to 2 μM)
